Source: paper PMC4541002, “Quantification of Niacin and Its Metabolite Nicotinuric Acid in Human Plasma by LC-MS/MS: Application to a Clinical Trial of a Fixed Dose Combination Tablet of Niacin Extended-Release/Simvastatin (500 mg/10 mg) in Healthy Chinese Volunteers” (International Journal of Analytical Chemistry, 2015)
Like-named read-outs stand apart in the source and are kept apart here.

Experiments:
[1] = Stability of stock solutions of NA and NUA; format: physicochemical
Protocol: Two separate stock solutions of the analytes were prepared at 1 mg/mL in methanol-water (50 : 50, v/v) and stored at −20°C. A series of standard working solutions for NA and NUA were prepared by diluting stock solution with methanol-water (50 : 50, v/v). The 5-FU solution was brought to a final concentration of 1000 ng/mL in acetonitrile from 1 mg/mL in acetonitrile. All working solutions were stored at 4°C and brought to room temperature before use. Calibration standards and quality control samples were prepared by spiking 50 μL of the working solutions and 50 μL of IS into 100 μL of drug-free human plasma. Matrix-matched NA and NUA calibration standards were prepared in plasma at concentrations of 5, 10, 20, 60, 200, 600, and 800 ng/mL, respectively. Similarly, NA and NUA quality control (QC) samples were prepared separately in plasma to give concentrations of 10, 60, and 600 ng/mL.

[2] = for Found C / Found R.E.: n = 3; for stability in human plasma: variety of storage and process conditions (Tables 2 and 3)
Protocol: The following stability tests were evaluated: (1) stability of the stock solutions of the analytes; (2) freeze and thaw stability of the analytes in the plasma from −20°C to room temperature for three cycles; (3) short-term stability of the analytes in plasma at room temperature before extraction for 3 h and the ready-to-inject samples (after extraction, in the mobile phase) to the autosampler rack for 4 h; and (4) long-term stability of the analytes in matrix stored at −20°C for two months. All stability tests samples at three concentration levels (10, 60, and 600 ng/mL) were analyzed in triplicate and the deviations were determined in relation to freshly prepared samples.

[3] = Pharmacokinetics of NA and NUA in plasma after single oral doses of Niacin extended-release/Simvastatin tablets in healthy Chinese volunteers; format: in vivo; details: for CLz/F: human plasma; for AUC(0-t) / AUC(0-inf) / Tmax / half-life / Cmax / k el / MRT last / Vd/F: both sexes, human, po; for k el: n = 12, read-out: K e (converted); for MRT last: n = 12, read-out: MRT0–t; for Vd/F: n = 12, read-out: V z/F
Protocol: Extraction of NA and NUA was carried out by protein precipitation. First, 50 μL of the IS working solution (1000 ng/mL 5-FU) and 50 μL of water were added to a 100 μL aliquot of human plasma. The sample mixture was then deproteinized with 250 μL of acetonitrile, and the precipitate was removed by centrifugation at 15000 rpm for 10 min. The supernatant was transferred to another tube and evaporated under a gentle stream of nitrogen at 40°C until it is dry. The residue was reconstituted in 150 μL mobile phase and vortex-mixed for 30 sec. An aliquot of 40 μL of the solution was injected into the LC-MS/MS system for analysis.
Before conducting the study all subjects provided written informed consent to participate. The study was designed as randomized, open-label, crossover, and single dose periods with a 7-day washout between each treatment. A total of 12 healthy Chinese volunteers (6 males and 6 females) aged 20 to 35 years with a body mass index between 19 and 24 kg/m^2 were recruited. Subjects were randomized into three groups (2 males and 2 females for each treatment). They were orally dosed with Niacin extended-release/Simvastatin 1, 2, and 3 tablets once daily, separately. The venous blood samples were collected at time intervals (0, 0.33, 0.66, 1.0, 1.5, 2.0, 2.5, 3.0, 3.5, 4.0, 5.0, 6.0, 8.0, 12, and 24 h) in separate vacutainers during the treatment. All blood samples were centrifuged at 3000 ×g for 10 min and the plasma was separated and kept frozen at −20°C until analysis.
The pharmacokinetic parameters were calculated with data analysis system (DAS) program (version 2.0, Mathematical Pharmacology Professional Committee, Shanghai, China). The maximum plasma concentration (C max) and the corresponding time (T max) were obtained from observed data. The terminal elimination rate constant (K e) was estimated with least-squares regression of values in the terminal log-linear region of plasma concentration-time curves, and the terminal elimination half-life (t 1/2) was calculated to be 0.693/K e. The area under the curve from time zero to the last sampling time (AUC0−t) was determined using the linear trapezoidal rule.

[4] = seven days at −20°C versus before
[5] = six h at room temperature versus before
[6] = extracted plasma sample in mobile phase, autosampler for 4 h (24°C), added 10.0 ng/mL
[7] = extracted plasma sample in mobile phase, autosampler for 4 h (24°C), added 60.0 ng/mL
[8] = extracted plasma sample in mobile phase, autosampler for 4 h (24°C), added 600.0 ng/mL
[9] = human plasma, long-term (2 months at −20°C), added 10.0 ng/mL
[10] = human plasma, long-term (2 months at −20°C), added 60.0 ng/mL
[11] = human plasma, long-term (2 months at −20°C), added 600.0 ng/mL
[12] = human plasma, short-term (3 h at 24°C), added 10.0 ng/mL
[13] = human plasma, short-term (3 h at 24°C), added 60.0 ng/mL
[14] = human plasma, short-term (3 h at 24°C), added 600.0 ng/mL
[15] = human plasma, three freeze/thaw cycles, added 10.0 ng/mL
[16] = human plasma, three freeze/thaw cycles, added 60.0 ng/mL
[17] = human plasma, three freeze/thaw cycles, added 600.0 ng/mL
[18] = 1 tablet (500 mg/10 mg), mean ± S.D., n = 12
[19] = 2 tablets (1000 mg/20 mg), mean ± S.D., n = 12
[20] = 3 tablets (1500 mg/30 mg), mean ± S.D., n = 12
[21] = in vivo, 1 tablet (500 mg/10 mg), mean ± S.D., n = 12
[22] = in vivo, 1 tablet (500 mg/10 mg), mean ± S.D.
[23] = in vivo, 2 tablets (1000 mg/20 mg), mean ± S.D., n = 12
[24] = in vivo, 2 tablets (1000 mg/20 mg), mean ± S.D.
[25] = in vivo, 3 tablets (1500 mg/30 mg), mean ± S.D., n = 12
[26] = in vivo, 3 tablets (1500 mg/30 mg), mean ± S.D.
[27] = plasma, 1 tablet (500 mg/10 mg), mean ± S.D., n = 12
[28] = plasma, 1 tablet (500 mg/10 mg), mean ± S.D.
[29] = plasma, 2 tablets (1000 mg/20 mg), mean ± S.D., n = 12
[30] = plasma, 2 tablets (1000 mg/20 mg), mean ± S.D.
[31] = plasma, 3 tablets (1500 mg/30 mg), mean ± S.D., n = 12
[32] = plasma, 3 tablets (1500 mg/30 mg), mean ± S.D.

## O=C(O)CNC(=O)c1cccnc1 [NUA, nicotinuric acid]
[1]; [4]
  R.E.% of response, stock solution stability: −1.6%
[1]; [5]
  R.E.% of response, stock solution stability: 0.8%
[2]; [6]
  Found C: 10.7 ng/mL
  Found R.E.: 7.3%
[2]; [7]
  Found C: 67.0 ng/mL
  Found R.E.: 11.7%
[2]; [8]
  Found C: 598.3 ng/mL
  Found R.E.: −0.3%
[2]; [9]
  Found C: 10.6 ng/mL
  Found R.E.: 6.4%
[2]; [10]
  Found C: 59.1 ng/mL
  Found R.E.: −1.5%
[2]; [11]
  Found C: 579.3 ng/mL
  Found R.E.: −3.4%
[2]; [12]
  Found C: 11.0 ng/mL
  Found R.E.: 9.7%
[2]; [13]
  Found C: 63.6 ng/mL
  Found R.E.: 5.9%
[2]; [14]
  Found C: 628.7 ng/mL
  Found R.E.: 4.8%
[2]; [15]
  Found C: 10.8 ng/mL
  Found R.E.: 8.3%
[2]; [16]
  Found C: 63.3 ng/mL
  Found R.E.: 5.6%
[2]; [17]
  Found C: 618.3 ng/mL
  Found R.E.: 3.1%
[2]
  stability in human plasma: did not reveal any significant degradation
[3]; [18]
  CLz/F: 287.8 ± 128.2 L/h
[3]; [19]
  CLz/F: 224.8 ± 91.90 L/h
[3]; [20]
  CLz/F: 189.3 ± 94.20 L/h
[3]; in vivo, 1 tablet
  AUC(0-t): 2150 ± 1360 ng·h/mL
[3]; [21]
  AUC(0-inf): 2180 ± 1370 ng·h/mL
  AUC(0-t): 2150 ± 1360 ng·h/mL
  Tmax: 2.06 ± 1.6 h
  half-life: 1.7 ± 0.801 h
[3]; in vivo, 1 tablet (500 mg/10 mg), mean ± S.D., n = 12, read-out: C max
  Cmax: 836 ± 399 ng/mL
[3]; [22]
  k el: 0.000147 s⁻¹
  MRT last: 2.91 ± 0.74 h
  Vd/F: 649 ± 338 L
[3]; in vivo, 1 tablet, read-out: mean maximum plasma concentration (C max)
  Cmax: 836 ± 399 ng/mL
[3]; in vivo, 2 tablets
  AUC(0-t): 5400 ± 3220 ng·h/mL
[3]; [23]
  AUC(0-inf): 5480 ± 3250 ng·h/mL
  AUC(0-t): 5400 ± 3220 ng·h/mL
  Tmax: 3.03 ± 2.19 h
  half-life: 2.55 ± 1.26 h
[3]; in vivo, 2 tablets (1000 mg/20 mg), mean ± S.D., n = 12, read-out: C max
  Cmax: 1630 ± 636 ng/mL
[3]; [24]
  k el: 9.17e-05 s⁻¹
  MRT last: 3.6 ± 1.32 h
  Vd/F: 821 ± 523 L
[3]; in vivo, 2 tablets, read-out: C max
  Cmax: 1630 ± 636 ng/mL
[3]; in vivo, 3 tablets
  AUC(0-t): 10200 ± 7080 ng·h/mL
[3]; [25]
  AUC(0-inf): 10200 ± 7090 ng·h/mL
  AUC(0-t): 10200 ± 7080 ng·h/mL
  Tmax: 2.33 ± 1.05 h
  half-life: 2.72 ± 1.83 h
[3]; in vivo, 3 tablets (1500 mg/30 mg), mean ± S.D., n = 12, read-out: C max
  Cmax: 2790 ± 1040 ng/mL
[3]; [26]
  k el: 9.17e-05 s⁻¹
  MRT last: 3.79 ± 1.11 h
  Vd/F: 696 ± 458 L
[3]; in vivo, 3 tablets, read-out: C max
  Cmax: 2790 ± 1040 ng/mL

## O=C(O)c1cccnc1 [NA, 3-pyridine-carboxylic acid]
[1]; [4]
  R.E.% of response, stock solution stability: −5.8%
[1]; [5]
  R.E.% of response, stock solution stability: −1.1%
[2]; [6]
  Found C: 9.6 ng/mL
  Found R.E.: −3.7%
[2]; [7]
  Found C: 62.7 ng/mL
  Found R.E.: 4.5%
[2]; [8]
  Found C: 578.3 ng/mL
  Found R.E.: −3.6%
[2]; [9]
  Found C: 9.6 ng/mL
  Found R.E.: −4.1%
[2]; [10]
  Found C: 53.7 ng/mL
  Found R.E.: −10.6%
[2]; [11]
  Found C: 595.3 ng/mL
  Found R.E.: −0.8%
[2]; [12]
  Found C: 9.1 ng/mL
  Found R.E.: −8.9%
[2]; [13]
  Found C: 58.8 ng/mL
  Found R.E.: −2.1%
[2]; [14]
  Found C: 636.3 ng/mL
  Found R.E.: 6.0%
[2]; [15]
  Found C: 9.5 ng/mL
  Found R.E.: −4.6%
[2]; [16]
  Found C: 58.0 ng/mL
  Found R.E.: −3.28%
[2]; [17]
  Found C: 546.3 ng/mL
  Found R.E.: −9.0%
[2]
  stability in human plasma: did not reveal any significant degradation
[3]; [18]
  CLz/F: 1271 ± 850.0 L/h
[3]; [19]
  CLz/F: 744.0 ± 356.0 L/h
[3]; [20]
  CLz/F: 526.0 ± 421.0 L/h
[3]; plasma, 1 tablet
  AUC(0-t): 349 ± 192 ng·h/mL
[3]; [27]
  AUC(0-inf): 518 ± 226 ng·h/mL
  AUC(0-t): 385 ± 192 ng·h/mL
  Tmax: 2.94 ± 2.63 h
  half-life: 8.8 ± 8.49 h
[3]; plasma, 1 tablet (500 mg/10 mg), mean ± S.D., n = 12, read-out: C max
  Cmax: 160 ± 125 ng/mL
[3]; [28]
  k el: 5.28e-05 s⁻¹
  MRT last: 5.37 ± 1.96 h
  Vd/F: 13700 ± 11600 L
[3]; plasma, 1 tablet, read-out: mean maximum plasma concentration (C max)
  Cmax: 160 ± 125 ng/mL
[3]; plasma, 2 tablets
  AUC(0-t): 1540 ± 957 ng·h/mL
[3]; [29]
  AUC(0-inf): 1720 ± 923 ng·h/mL
  AUC(0-t): 1540 ± 957 ng·h/mL
  Tmax: 1.82 ± 1.69 h
  half-life: 7.33 ± 8.68 h
[3]; plasma, 2 tablets (1000 mg/20 mg), mean ± S.D., n = 12, read-out: C max
  Cmax: 904 ± 487 ng/mL
[3]; [30]
  k el: 0.000119 s⁻¹
  MRT last: 4.4 ± 2.21 h
  Vd/F: 7650 ± 9320 L
[3]; plasma, 2 tablets, read-out: C max
  Cmax: 904 ± 487 ng/mL
[3]; plasma, 3 tablets
  AUC(0-t): 6020 ± 6580 ng·h/mL
[3]; [31]
  AUC(0-inf): 6100 ± 6550 ng·h/mL
  AUC(0-t): 6020 ± 6580 ng·h/mL
  Tmax: 2.42 ± 1.64 h
  half-life: 5.4 ± 4.57 h
[3]; plasma, 3 tablets (1500 mg/30 mg), mean ± S.D., n = 12, read-out: C max
  Cmax: 2480 ± 1430 ng/mL
[3]; [32]
  k el: 7.5e-05 s⁻¹
  MRT last: 3.65 ± 1.33 h
  Vd/F: 5200 ± 6650 L
[3]; plasma, 3 tablets, read-out: C max
  Cmax: 2480 ± 1430 ng/mL
